{"source": "patent US11433090B2", "about": "“mTOR-inhibitor-containing medicine for treating or preventing ophthalmic symptoms, disorders, or diseases, and application thereof” (The Doshisha, priority 2017, dated 2022)", "key": {"[1]": {"system": "cleaved caspase 3", "test": "Western blot of cleaved caspase 3 after TGF-β2 stimulation in iFECD", "format": "cell-based, human", "details": "3 pmol mTOR siRNA, then TGF-β2 10 ng/ml 24 h, FIG. 8", "protocol": "(§1) The medium was removed from a culture dish in which iFECDs were being cultured, and the cells were supplemented with 1×PBS (−) that was preheated to 37° C., and were washed. This was repeated twice. The cells were supplemented again with 1×PBS (−) and incubated for 3 minutes at 37° C. (5% CO2). After removing the PBS (−), the cells were supplemented with 0.05% Trypsin-EDTA (Nacalai Tesque, 32778-34) and incubated for 5 minutes at 37° C. (5% CO2). The cells were then suspended in a medium, and collected by centrifugation at 1500 rpm for 3 minutes. DMEM (Nacalai Tesque, 08456-36)+10% FBS (Biowest, S1820-500)+1% P/S (Nacalai Tesque, 26252-94) was used as the medium.\niFECDs were seeded on a 12-well plate at a ratio of 1×10^5 cells per well and cultured for 24 hours at 37° C. (5% CO2) (DMEM+10% FBS+1% P/S was used as the medium). After 24 hours, the medium was removed. Rapamycin was added to culture the cells for 24 hours. (DMEM+2% FBS+1% P/S was used as the medium). After 24 hours, the medium was removed. A medium containing 10 ng/ml of Recombinant Human TGF-β2 (Wako, 200-19911) and rapamycin was added to culture the cells for 24 hours. […]\n8 μg of the extracted protein was separated by SDS-PAGE and transferred onto a nitrocellulose membrane. […] The detected band strength was analyzed with a lumino image analyzer LAS-4000 mini (Fuji Film) and ImageQuant™ software (GE Healthcare). […]"}, "[2]": {"system": "iFECD", "test": "Cell damage induced by TGF-β2 in iFECD, phase contrast microscopy", "format": "cell-based, human", "details": "3 pmol mTOR siRNA with Lipofectamine, then TGF-β2 10 ng/ml 24 h, FIG. 7", "protocol": "as §1\niFECDs were seeded on a 12-well plate at a ratio of 1×10^5 cells per well and cultured for 24 hours at 37° C. (5% CO2) (DMEM+10% FBS+1% P/S was used as the medium). After 24 hours, the medium was removed. Rapamycin was added to culture the cells for 24 hours. (DMEM+2% FBS+1% P/S was used as the medium). After 24 hours, the medium was removed. A medium containing 10 ng/ml of Recombinant Human TGF-β2 (Wako, 200-19911) and rapamycin was added to culture the cells for 24 hours. (DMEM+2% FBS+1% P/S was used as the medium). After 24 hours, the cell morphology and apoptosis were observed under a phase contrast microscope.\niFECDs were seeded on a 12-well plate at a ratio of 3×10^4 cells per well and cultured for 24 hours at 37° C. […]"}}, "data": [{"substance": "mTOR siRNA: siRNA against mTOR gene (Ambion, AS026M0L); sense strand SEQ ID NO: 1, antisense strand SEQ ID NO: 2 (sense CAUUCGCAUUCAGUCCAUATT; antisense UAUGGACUGAAUGCGAAUGAT; chemistry not given here)", "values": [{"measurement": "activated form of cleaved caspase-3 (about 17 kDa), western blot", "setting": "[1]", "value": "hardly observed"}, {"measurement": "damage to corneal endothelial cells induced by Recombinant Human TGF-β2", "setting": "[2]", "value": "suppressed"}]}]}
